Data published in publication PMC4666614, “Identification of New Regions in HIV-1 gp120 Variable 2 and 3 Loops that Bind to α4β7 Integrin Receptor” (PLoS ONE, 2015).
Values joined by “and” are separate entries in the source; they are usually repeats but may differ in a detail not shown here. Equal entries are not always repeated. Bridge positions count the residues as written; N and C are the ends. Ends that are not written are not given here.

Tests used:
[1] = system: α4β7 integrin binding to MAdCAM-1; experiment: Competitive inhibition of binding of α4β7 on RPMI8866 cells to MAdCAM-1 by peptides, viruses, IMCs and controls; type: cell-based, human; conditions: for % Inhibition ± SD of α4β7 integrin binding to MAdCAM-1: average of 3–7 experiments in triplicate; for Inhibition of α4β7 integrin binding to MAdCAM-1 by peptide (competition): peptide 10 μg/ml, cells pre-incubated 45 min 37°C, 2–4 experiments in triplicate
Protocol: 96-well plates were coated with MAdCAM-1 as described above. RPMI8866 cells (2 X 10^6/ ml) were incubated with cyclic V2 or V3 MN, TH023, or acute subtype C (C-6980v0c22) peptides or with scrambled flanking region (SFL) or the mid region (SMR) TH023 V2 or with a completely scrambled (SCR) TH023 peptide (10 μg/ml) for 45 minutes at 37°C before being added in triplicate to the MAdCAM-1 coated plates for 1 hour at 37°C. In concurrent experiments, RMI8866 cells were incubated with purified primary HIV-1 (0.75 ng to 6 ng/well p24) subtype B (SF162, US-1, JRFL), subtype CRF01_AE viruses (92TH023), IMCs (0.75 ng to 1000 ng/well p24 in each case) containing acute or chronic envelopes (Acute CRF01_AE (703357) [GenBank:JN944658], C (C-6980v0c22) [GenBank:HM215344], A(851891); Chronic CRF01_AE (CM235.2) [AF259954.1], C (ET02220LucR) [U46016]) or with pSG3Δenv. pSG3Δenv contained a four-nucleotide insertion mutation (CTAG) in Env, leading to a translation stop codon after amino acid residue 142. The pSG3Δenv clone is routinely used for generating Env pseudotyped infectious virions.
Viruses were tested in triplicate in two independent experiments. In additional experiments, mannose, HIV-1 p24, and ovalbumin (0.2–10 μg/ml) were used in the competition assay as nonspecific protein controls (data in Table 2; 3–7 experiments performed in triplicate), whereas, an anti-RSV mAb, Synagis® was used as a nonspecific antibody control. Synagis® was incubated for 45 minutes with either MAdCAM-1 or with RPMI8866 cells and then placed in the assay system. The remainder of the assay was similar to that described above. Significance was determined by paired Student’s t test.

α4β7 on RPMI8866 cells [2] = experiment: Binding of α4β7 on RPMI8866 cells to plate-bound biotinylated V2/V3 peptides and its inhibition by ACT-1 (AlamarBlue); type: cell-based, human; conditions: streptavidin plate, biotinylated peptide 5 μg/ml; cells pre-incubated with ACT-1 0.5 μg/ml 45 min 37°C; 8 hour time point; average of 3 to 12 experiments in duplicate or triplicate
Protocol: Triplicate wells of a 96-well U-bottom polystyrene plate (Immunlon) were coated overnight at 4°C with 100 μl of 2 μg/ml of MAdCAM-1 or Streptavidin diluted in 0.05 M bicarbonate buffer, pH 9.6. The streptavidin-coated plates were then incubated with biotinylated cyclic or linear V2 peptides or cyclic V3 peptides (5 μg/ml in bicarbonate buffer, See Table 1 for sequence data) for 1 hour at 37°C. The solution from the plates was discarded and the plates were then blocked with blocking buffer (25 mM TRIS, 2.7 mM potassium chloride, 150 mM sodium chloride, 0.5% casein, 4 mM manganese chloride, pH 7.2) for 1 hour at 37°C. The solution was discarded and the plates were incubated with sample buffer (25 mM TRIS, 2.7 mM potassium chloride, 150 mM sodium chloride, 4 mM manganese chloride, pH 7.2 containing 1% fetal bovine sera) for 45 minutes at 37°C. Plates were manually washed 4 times with blocking buffer followed by the addition of 2 x 10^5 RPMI8866 cells/well that had been pre-incubated for 45 minutes at 37°C with sample buffer, with sample buffer containing 0.5 μg/ml of mAb ACT-1 or as a control, normal mouse serum (1:100). Plates were then incubated at 37°C (5% CO2) for 1 hour, washed 5 times with wash buffer followed by the addition of 100 μl of RPMI-1640 containing 1% FBS, pen/strep/glutamine. The adhered cells were detected by the addition of 10 μl of AlamarBlue® dye. Plates were incubated at 37°C (5% CO2) for 8 hours. Fluorescence was measured at 2 hour intervals using a M2 plate reader. For each condition, a minimum of 2 to 12 independent experiments run in duplicate or triplicate was performed. The optimum amount of coating proteins/peptides and the amount of ACT-1 required to inhibit α4β7 on RPMI8866 cells was determined in separate experiments (data not shown).

α4β7 on RPMI8866 cells [3] = experiment: Flow cytometry binding of ACT-1, gp120 and cyclic V2 peptides to RPMI8866 cells; parameters: species or system human; conditions: gp120 2.5 μg (anti-gp145 + anti-mouse Texas Red); biotinylated peptides 1 μg and 5 μg (neutrAvidin-PE); 30 min on ice; n = 2
Protocol: RPMI8866 cells (0.5 x10^6) were incubated for 30 minutes on ice with 10% normal goat sera in PBS to block the Fc receptors. Cells were suspended in cold FACS buffer (PBS-containing 0.5% BSA) and incubated at room temperature for 30 minutes with the mAb ACT-1 conjugated to APC (1 μg). Cells were washed twice with cold FACS buffer, fixed with 2% formaldehyde in PBS, and analyzed on a LSRII flow cytometer. The data was analyzed using FlowJo8.8.6 software (TreeStar Inc.).
RPMI8866 cells (1 x10^6) were suspended in cold FACS buffer (PBS-containing 0.5% BSA) and incubated at room temperature for 30 minutes with LIVE ⁄ DEAD® Fixable Dead Cell Stain (Life Technologies) as per the manufacturer’s instruction. Cells were washed twice with cold FACS buffer before being incubated with 10% goat sera in PBS for 30 minutes on ice. All subsequent incubations were carried out for 30 minutes on ice. CHO- expressed HIV-1IIIB rgp120 (2.5 μg) and biotinylated cyclic V2-TH023 peptide (1 μg and 5 μg) were incubated with RPMI8866 cells. […] Cells were washed twice with cold FACS buffer, fixed with 2% formaldehyde in PBS, and analyzed on a LSRII flow cytometer. The data was analyzed using FlowJo8.8.6 software (TreeStar Inc.).

Molecule | Percent inhibition by ACT-1 of binding of α4β7 on RPMI8866 cells to the plate-bound peptide (α4β7 on RPMI8866 cells [2]) [%] | Inhibition of α4β7 integrin binding to MAdCAM-1 by peptide (competition) [1] | further results
OC[C@H]1OC(O)[C@@H](O)[C@@H](O)[C@@H]1O (stereo partly drawn) [Mannose, mannose, reference compound] | – | – | % Inhibition ± SD of α4β7 integrin binding to MAdCAM-1 ([1]; 0.2 μg/ml): 6.7 ± 7.6%; % Inhibition ± SD of α4β7 integrin binding to MAdCAM-1 ([1]; 1.0 μg/ml): 7.6 ± 8.8%; % Inhibition ± SD of α4β7 integrin binding to MAdCAM-1 ([1]; 5 μg/ml): 16.3 ± 14.9%; % Inhibition of α4β7 integrin binding to MAdCAM-1 ([1]; 10 μg/ml, average of triplicate determinations from a single experiment): 0%; Inhibition of α4β7 integrin binding to MAdCAM-1 by nonspecific controls (in words) ([1]; 0.2–10 μg/ml): no significant inhibition
CSFNITTELRDKRKKEHALFNNLDIVQLDGNSSLYRLINC (disulfide 1-40 (inferred)) [Cyclic V2 Acute C, cyclic V2 loop peptide based on acute C strain C06980v0c22] | 72.3 | – | –
CSFNITTSIGDKMQKEYALLYKLDIEPIDNDSTSYRLISC (disulfide 1-40 (inferred)) [Cyclic V2 MN, cyclic V2 loop peptide based on MN strain (subtype B)] | 66.3 | – | –
CSFNMTTELRDKKQKVHALFYKLDIVPIEDNTSSSEYRLINC (disulfide 1-42 (inferred)) [Cyclic V2 TH023, biotinylated cyclic V2 loop peptide of gp120, strain 92TH023 (CRF01_AE), HXB2 157–196] | 62.9 | 80–90% | Binding to α4β7 on RPMI8866 cells (flow cytometry) (α4β7 on RPMI8866 cells [3]): bound to α4β7
CTRPNNNTRKSIRIGPGQTFYATGDIIGDIRQAYC (disulfide 1-35 (inferred)) [Cyclic V3 Acute C, cyclic V3 loop peptide based on acute C strain C06980v0c22] | 70.0 | – | –
CTRPNYNKRKRIHIGPGRAFYTTKNIKGTIRQAHC (disulfide 1-35 (inferred)) [Cyclic V3 MN, cyclic V3 loop peptide based on MN strain (subtype B)] | 75.5 | 80% | –
CTRPSNNTRTSINIGPGQVFYRTGDIIGDIRKAYC (disulfide 1-35 (inferred)) [Cyclic V3 TH023, cyclic V3 loop peptide, strain 92TH023, HXB2 295–331] | 67.6 | 80–90% and 80% | –
Synagis: anti-RSV mAb used as a nonspecific antibody control [reference compound] | – | – | Inhibition of α4β7 binding to MAdCAM-1 by nonspecific antibody control ([1]; mAb incubated 45 min either with MAdCAM-1-coated plate or with RPMI8866 cells, 3 experiments): did not inhibit the α4β7 binding
XSFNMTTELRDKKQKVHALFYKLDIVPIEDNTSSSEYRLINX [Linear V2 TH023, linear V2 92TH023 peptide with S-methyl Cysteine at both ends] | 65.5 | – | –
gp120: HIV-1IIIB rgp120 (CHO expressed) [reference compound] | – | – | Binding to α4β7 on RPMI8866 cells (flow cytometry) (α4β7 on RPMI8866 cells [3]): bound to α4β7
